# According to patent US20260041744A1, “Methods for Treating Pompe Disease” (Amicus Therapeutics, Inc., priority 2022, published 2026):
# Entries after “also recorded” stand apart in the source; their conditions may differ.
# Columns and labels:
# [1] = test system: adult subjects with LOPD; assay: Study ATB200-07 (OLE): Hex4; conditions: for Hex4, mean BSL: Study ATB200-03 baseline, OLE-ES Population excluding Subject 4005-2511; for Hex4, mean 52-wk CFB: change from ATB200-03 baseline at Week 52; for Hex4, mean 52-wk CFB / Hex4, mean 104-wk CFB: OLE-ES excluding Subject 4005-2511; for Hex4, mean 104-wk CFB: change from ATB200-03 baseline at Week 104, alglucosidase alfa/placebo group switched to cipaglucosidase alfa/miglustat at Week 52
# Method: (§1) The Phase III double-blind PROPEL study (NCT03729362; ATB200-03) described in Examples 9 and 10 above compared the investigational two-component therapy cipaglucosidase alfa/miglustat (cipa/mig) with alglucosidase alfa/placebo (alglu) in adults with late-onset Pompe disease (LOPD) over 52 weeks. The ongoing open-label extension (OLE) of PROPEL (NCT04138277; ATB200-07) evaluates long-term safety and efficacy of cipa/mig. Outcomes include 6 minute walk distance (6MWD), forced vital capacity (FVC), creatine kinase (CK) and hexose tetrasaccharide (Hex4) levels and safety. Data are reported as change from the PROPEL baseline to OLE week 52 (104 weeks after the PROPEL baseline).
# [2] = test system: adult subjects with late-onset Pompe disease (LOPD); assay: Study ATB200-03 (PROPEL): urinary hexose tetrasaccharide (Hex4/Glc4); format: in vivo, human; conditions: for mean change in urine Hex-4 after 52 weeks: combined ERT switch and ERT naïve population; for urinary Hex4 reduction vs alglucosidase alfa: week 52
# [3] = test system: adult subjects with LOPD; assay: Study ATB200-07 (OLE): CK; conditions: for CK, mean BSL: Study ATB200-03 baseline, OLE-ES Population excluding Subject 4005-2511; for CK, mean 52-wk CFB: change from ATB200-03 baseline at Week 52; for CK, mean 52-wk CFB / CK, mean 104-wk CFB: OLE-ES excluding Subject 4005-2511; for CK, mean 104-wk CFB: change from ATB200-03 baseline at Week 104, alglucosidase alfa/placebo group switched to cipaglucosidase alfa/miglustat at Week 52
# Method: as §1
# [4] = test system: adult subjects with LOPD; assay: Study ATB200-07 (OLE): sitting % predicted FVC; format: in vivo, human; conditions: for Sitting FVC, mean BSL: Study ATB200-03 baseline, OLE-ES Population excluding Subject 4005-2511; for Sitting FVC, mean 52-wk CFB: change from ATB200-03 baseline at Week 52; for Sitting FVC, mean 52-wk CFB / Sitting FVC, mean 104-wk CFB: OLE-ES excluding Subject 4005-2511; for Sitting FVC, mean 104-wk CFB: change from ATB200-03 baseline at Week 104, alglucosidase alfa/placebo group switched to cipaglucosidase alfa/miglustat at Week 52
# From the text: The study doses and schedule are maintained from Study ATB200-03.
# Efficacy data are presented in this summary as change from the baseline of Study ATB200-03 (OLE-ES Population).
# [5] = test system: adult subjects with late-onset Pompe disease (LOPD); assay: Study ATB200-03 (PROPEL): serum creatine kinase (CK); format: in vivo, human; conditions: for mean change in CK after 52 weeks: combined study population; for CK reduction vs alglucosidase alfa: week 52
# [6] = test system: adult subjects with late-onset Pompe disease (LOPD); assay: Study ATB200-03: summary across primary, secondary and biomarker endpoints (incl. SVC, FVC supine, MIP, MEP, SNIP, MMT upper/overall, QMT, TUG); conditions: ITT excluding outlier subject
# From the text: • overall physical wellbeing • effort of breathing • muscle strength • muscle function • ability to move around • activities of daily living • energy level • level of muscular pain • actual value of the subject's functional status (improving, stable, or declining) at Week 52, as measured by the Physician's Global Impression of Change • change from baseline to Week 52 in the following measures of pulmonary function, as follows: • sitting FVC (% predicted) • MIP (cmH2O) • MIP (% predicted) • MEP (cmH2O) • MEP (% predicted) • SNIP (cmH2O)
# [7] = test system: LOPD population (PROPEL target population); assay: Multi-level network meta-regression (ML-NMR) indirect treatment comparison, 6MWD and FVC change from baseline at week 52; parameters: species or system human; conditions: for relative effect, sensitivity analysis (RCT data only), 6MWT and FVC: base-case scenario
# Method: Using patient-level data from the PROPEL randomized clinical trial (RCT) plus aggregate published data from other RCTs, Phase I/II and open label extension trials, a multi-level network meta-regression was conducted, adjusting for various baseline covariates including previous ERT duration. The base case scenario had covariates resembling the PROPEL population (naïve and ERT-experienced) and analyzed 6MWD and FVC change from baseline at 52 weeks.
# An ITC providing relative effect estimates in the target population of interest (ie an LOPD population including a mix of ERT-naïve and ERT-experienced subjects as in the pivotal Phase III trial comparing Cipa+mig with Alglu [PROPEL]) was performed.
# A systematic literature review (SLR) was conducted to identify relevant published clinical studies of ERTs in LOPD. Outcomes assessed were change from baseline in 6-minute walking distance (6MWD) (m) and in forced vital capacity (FVC; % predicted) at week 52, acknowledged by clinicians, HTA agencies and payers as key LOPD trial endpoints. Aggregate results on 6MWD and FVC change from baseline over time and baseline characteristics (age, gender, ethnicity, previous ERT duration, baseline 6MWD and baseline FVC) were extracted from included studies.
# A multi-level network meta regression (ML-NMR) was performed, which is an extension of standard network meta-analyses (NMAs) that take into account the effect of study-level covariates, and that can be applied to any connected network with any mixture of individual patient-level data (IPD) and aggregate data. ML-NMR is an accepted method by the National Institute for Health and Care Excellence (NICE) in support of cost effectiveness analysis. Single-arm study results were matched to appropriate comparator arms of the comparative studies to allow for inclusion into the network. Mean treatment differences with associated 95% credible intervals (CrIs) were calculated for 6MWD and FVC change from baseline at week 52.
# A base-case scenario was evaluated in which all covariates were set to the target population of the PROPEL trial. To study the impact of previous ERT duration on relative effects, ERT duration value was varied, keeping remaining covariate values as in the base-case scenario. A sensitivity analysis was performed by excluding all matched single-arm evidence from the network to assess its impact on the results.
# Both fixed effects (FE) and random effects (RE) ML-NMR models were applied and the deviance information criteria (DIC) was used to assess goodness-of-fit of the models and to identify the appropriate model (FE or RE model) for the data. Models were implemented in a Bayesian framework using Stan with help of the R package multinma.
# In the base-case scenario, the covariates were set to the baseline characteristics of the target population (ie the PROPEL trial; see Table 20), and time was set to 52 weeks.
# [8] = test system: adult subjects with LOPD; assay: Study ATB200-07 (OLE): GSGC; format: in vivo, human; conditions: for GSGC, mean BSL: Study ATB200-03 baseline, OLE-ES Population excluding Subject 4005-2511; for GSGC, mean 52-wk CFB: change from ATB200-03 baseline at Week 52, decrease indicates improvement; for GSGC, mean 52-wk CFB / GSGC, mean 104-wk CFB: OLE-ES excluding Subject 4005-2511; for GSGC, mean 104-wk CFB: change from ATB200-03 baseline at Week 104, alglucosidase alfa/placebo group switched to cipaglucosidase alfa/miglustat at Week 52
# From the text: Analysis populations presented in this summary are 1) the OLE-ES Population (all subjects who satisfied the eligibility requirements (based on the inclusion and exclusion criteria) and entered Study ATB200-07 and 2) the OLE-FAS Population (all subjects who entered the OLE Study ATB200-07 who had both a valid ATB200-07 baseline and at least 1 post-baseline assessment for at least 1 of the 6 main efficacy endpoints [6MWD, sitting % predicted FVC, MMT-lower extremities, PROMIS-Physical Function, PROMIS-Fatigue, and GSGC]).
# [9] = test system: Gaa KO mice; assay: Muscle biomarkers LAMP1, LC3, dysferlin in Gaa KO mice (staining, western blot); format: in vivo, mouse; conditions: for LC3 II level / autophagy, western blot: mouse, in vivo
# Method: The therapeutic effects of ATB200 and miglustat were evaluated and compared against those of Alglucosidase alfa in Gaa KO mice. For the study, male Gaa KO (3-to 4-month old) and age-matched wild-type (WT) mice were used. Alglucosidase alfa was administered via bolus tail vein intravenous (IV) injection. In the co-administration regimen, miglustat was administered via oral gavage (PO) 30 minutes prior to the IV injection of ATB200. Treatment was given biweekly. Treated mice were sacrificed after 14 days from the last administration and various tissues were collected for further analysis. Table 11 summarizes the study design:
# Tissue samples were also analyzed for biomarker changes following the methods discussed in: Khanna R, et al. (2012), “The pharmacological chaperone AT2220 increases recombinant human acid α-glucosidase uptake and glycogen reduction in a mouse model of Pompe disease,” Plos One 7(7): e40776; and Khanna, R et al. (2014), “The Pharmacological Chaperone AT2220 Increases the Specific Activity and Lysosomal Delivery of Mutant Acid a-Glucosidase, and Promotes Glycogen Reduction in a Transgenic Mouse Model of Pompe Disease,” PLOS ONE 9(7): e102092.
# Similarly, intense LC3-positive aggregates in the muscle fibers of untreated Gaa KO mice signify the presence of autophagic zones and autophagy build-up. […] A similar observation was made when the expression of LC3 was assessed using western blot. […] In comparison, the effect of alglucosidase alfa on autophagy was modest.
# Dysferlin, a protein involved in membrane repair and whose deficiency/mistrafficking is associated with a number of muscular dystrophies, was also assessed.
# [10] = OLE-ES Population, listed as cipaglucosidase alfa/miglustat
# [11] = listed as cipaglucosidase alfa/miglustat
# [12] = ERT-naïve, Study ATB200-03/07, excluding the outlier
Substance,"Hex4, mean BSL [1]","Hex4, mean 52-wk CFB [1]","Hex4, mean 104-wk CFB [1]",mean change in urine Hex-4 after 52 weeks [2],"CK, mean BSL [3]","CK, mean 52-wk CFB [3]","CK, mean 104-wk CFB [3]","Sitting FVC, mean BSL [4]","Sitting FVC, mean 52-wk CFB [4]","Sitting FVC, mean 104-wk CFB [4]",mean change in CK after 52 weeks [5],parameters with statistically significant decline from baseline at Week 52 [6],parameters with statistically significant improvement from baseline at Week 52 [6],"relative effect, sensitivity analysis (RCT data only), 6MWT and FVC [7]","GSGC, mean BSL [8]","GSGC, mean 52-wk CFB [8]","GSGC, mean 104-wk CFB [8]","LC3 II level / autophagy, western blot [9]",also measured
"ATB200/miglustat: two-component therapy: cipaglucosidase alfa (ATB200) administered in conjunction with miglustat (AT2221), a stabilizer of cipaglucosidase alfa",4.6,−2.0,−2.1,−31.5%,440.6,−129.1,−154.9,70.7 % predicted,−1.1 % predicted,−1.6 % predicted,−22.4%,SVC sitting,"6MWD, % predicted 6MWD, MMT lower extremities, MMT upper extremities, overall MMT, PROMIS-Physical Function, PROMIS-Fatigue, CK, and Hex4",statistically favourable versus Alglu; numerically unfavourable versus Aval; numerically favourable versus placebo (6MWT and FVC),14.4,−0.6,−1.0,significant decrease in levels of LC3 II,"Hex4 course to Week 104 [1, 10]: CK and Hex4 declined substantially through Study ATB200-03, then stabilized through Study ATB200-07; also recorded: decreased substantially after subjects switched to cipaglucosidase alfa/miglustat through Week 104; urinary Hex4 reduction vs alglucosidase alfa [2]: reductions in CK and urinary Hex4 were significantly greater with ATB200/miglustat treatment at week 52; urinary Hex4 reduction vs alglucosidase alfa ([2]; listed as AT-GAA): significantly favored AT-GAA compared to alglucosidase alfa; urinary Hex4 reduction vs alglucosidase alfa [2, 11]: reductions in biomarkers of muscle damage (CK) and disease substrate (Hex4) also were significantly greater with cipaglucosidase alfa/miglustat compared with alglucosidase alfa; CK course to Week 104 [3, 10]: CK and Hex4 declined substantially through Study ATB200-03, then stabilized through Study ATB200-07; also recorded: declined substantially after subjects switched to cipaglucosidase alfa/miglustat through Week 104; sitting % predicted FVC course to Week 104 ([4]; OLE-ES Population, continued cipaglucosidase alfa/miglustat): showed a slight decline from baseline through Study ATB200-03, then stabilized through Week 104; CK reduction vs alglucosidase alfa [5]: reductions in CK and urinary Hex4 were significantly greater with ATB200/miglustat treatment at week 52; CK reduction vs alglucosidase alfa ([5]; listed as AT-GAA): significantly favored AT-GAA compared to alglucosidase alfa; CK reduction vs alglucosidase alfa [5, 11]: reductions in biomarkers of muscle damage (CK) and disease substrate (Hex4) also were significantly greater with cipaglucosidase alfa/miglustat compared with alglucosidase alfa; 6MWD relative effect vs alglucosidase alfa ([7]; base case, 52 weeks): 16.3 meters; 6MWD relative effect vs avalglucosidase alfa ([7]; base case, 52 weeks): 29.5 meters; FVC relative effect vs alglucosidase alfa ([7]; base case, 52 weeks): 3.1%; FVC relative effect vs avalglucosidase alfa ([7]; base case, 52 weeks): 2.8%; relative effect, main analysis, 6MWD and FVC ([7]; base-case scenario / by ERT duration, listed as Cipa+mig): statistically significant favourable effect versus Alglu and Aval; also recorded: numerically favourable effect versus placebo; also recorded: for FVC, Cipa+mig was only numerically favorable vs. Aval in the ERT-naïve setting; FVC relative effect vs Aval ([7]; naïve subjects): 0.4%; LAMP1-positive vesicles in muscle fibers ([9]; vastus lateralis): led to more fibers with normalized LAMP1 level; LC3-positive aggregates in muscle fibers ([9]; vs alglucosidase alfa): preferentially reduced; dysferlin localisation in muscle fibers ([9]; vs alglucosidase alfa): able to restore dysferlin to the sarcolemma in a greater number of muscle fibers"
alglucosidase alfa [reference compound],7.0,1.6,−2.7,+11.0%,527.4,41.0,−173.6,69.5 % predicted,−3.6 % predicted,−3.6 % predicted,+15.6%,"GSGC, FVC sitting, FVC supine, SVC sitting, and CK",not observed for any parameters,numerically favourable versus placebo,14.3,0.9,0.3,modest,"mean urinary Glc4 concentration at Week 52 ([2]; ERT-experienced patients (baseline 4.6 and 7.2 mmol/mol)): 9.1 mmol/mol; % Predicted FVC Baseline Mean [4, 12]: 79.1 % predicted; % Predicted FVC CFBL M12 (W 52) Mean [4, 12]: −4.0 % predicted; % Predicted FVC CFBL M24 (W 104) Mean [4, 12]: −3.1 % predicted"
